In PubChem BioAssay AID248 (DTP/NCI, 2004):
Toxic doses and inconclusive results are not listed. No stated cut-off is given here; in the data, active means T/C of 150% or more; inactive means T/C below 125%. Square brackets hold non-standard residues; d marks the D form. Peptide text beside a SMILES is read from it. * marks the point of attachment. Cbz = O=C(OCc1ccccc1)*; Sar = CNCC(=O)O

System: L1210 leukemia ip in BDF1 mice, survival T/C
Assay: NCI In Vivo Anticancer Drug Screen. Data for tumor model L1210 Leukemia (intraperitoneal) in B6D2F1 (BDF1) mice
Details: endpoint: mean survival time, higher = longer survival
How it was run: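 Mice bearing the transplanted tumor received compound or vehicle. Survival of the treated group was divided by that of the vehicle-treated control group to give the ratio.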

[1] = dose: 100.0 mg/kg/injection, schedule: Q01DX001 (ip), vehicle: Klucel (hydroxypropylcellulose) (HPC)
[2] = dose: 200.0 mg/kg/injection, schedule: Q01DX001 (ip), vehicle: Klucel (hydroxypropylcellulose) (HPC)
[3] = dose: 100.0 mg/kg/injection, schedule: Q01DX009 (ip), vehicle: Klucel (hydroxypropylcellulose) (HPC)
[4] = dose: 100.0 mg/kg/injection, schedule: Q04DX003 (ip), vehicle: Klucel (hydroxypropylcellulose) (HPC)
[5] = dose: 200.0 mg/kg/injection, schedule: Q01DX009 (ip), vehicle: Klucel (hydroxypropylcellulose) (HPC)
[6] = dose: 200.0 mg/kg/injection, schedule: Q04DX003 (ip), vehicle: Klucel (hydroxypropylcellulose) (HPC)
[7] = dose: 100.0 mg/kg/injection, schedule: Q01DX001 (ip), vehicle: saline
[8] = dose: 200.0 mg/kg/injection, schedule: Q01DX001 (ip), vehicle: saline
[9] = dose: 400.0 mg/kg/injection, schedule: Q01DX001 (ip), vehicle: saline
[10] = dose: 100.0 mg/kg/injection, schedule: Q01DX001 (ip), vehicle: carboxymethylcellulose (CMC)
[11] = dose: 200.0 mg/kg/injection, schedule: Q01DX001 (ip), vehicle: carboxymethylcellulose (CMC)
[12] = dose: 400.0 mg/kg/injection, schedule: Q01DX001 (ip), vehicle: carboxymethylcellulose (CMC)
[13] = dose: 6.25 mg/kg/injection, schedule: Q01DX009 (ip), vehicle: saline
[14] = dose: 25.0 mg/kg/injection, schedule: Q01DX009 (ip), vehicle: saline
[15] = dose: 400.0 mg/kg/injection, schedule: Q01DX009 (ip), vehicle: Klucel (hydroxypropylcellulose) (HPC)
[16] = dose: 400.0 mg/kg/injection, schedule: Q04DX003 (ip), vehicle: Klucel (hydroxypropylcellulose) (HPC)
[17] = dose: 100.0 mg/kg/injection, schedule: Q01DX009 (ip), vehicle: saline with Tween-80
[18] = dose: 200.0 mg/kg/injection, schedule: Q01DX009 (ip), vehicle: saline with Tween-80

Measured: T/C

O=C(O)COc1cc(Cl)cc(Cl)c1
inactive: dose: 50.0 mg/kg/injection, schedule: Q04DX002 (ip), vehicle: other 91 % of control | dose: 100.0 mg/kg/injection, schedule: Q04DX002 (ip), vehicle: other 94 % of control | dose: 200.0 mg/kg/injection, schedule: Q04DX002 (ip), vehicle: other 108 % of control

O=Nc1ccc(O)c(Cl)c1
inactive: [1] 95 % of control | [2] 98 % of control

CN(CC(=O)O)C(=O)CNC(=O)OCc1ccccc1 (Cbz-Gly-[Sar]-OH)
inactive: dose: 50.0 mg/kg/injection, schedule: Q01DX009 (ip), vehicle: Klucel (hydroxypropylcellulose) (HPC) 105 % of control | dose: 50.0 mg/kg/injection, schedule: Q04DX003 (ip), vehicle: Klucel (hydroxypropylcellulose) (HPC) 97 % of control | [3] 94 % of control | [4] 97 % of control | [5] 91 % of control | [6] 98 % of control

CC1(C)CCC(C)(C)C2CC3C(CC21)C(C)(C)CCC3(C)C (centres undefined)
inactive: [7] 109 % of control | [8] 112 % of control | [9] 100 % of control

COc1cc2c(cc1OC)C1=[N+](CCC1)CC2
inactive: dose: 75.0 mg/kg/injection, schedule: Q01DX001 (ip), vehicle: saline 101 % of control | [10] 97 % of control | dose: 150.0 mg/kg/injection, schedule: Q01DX001 (ip), vehicle: saline 102 % of control | [11] 94 % of control | [12] 100 % of control

[CeH3]
inactive: dose: 100.0 mg/kg/injection, schedule: Q04DX003 (sc), vehicle: olive oil, sesame oil, peanut oil 98 % of control | dose: 200.0 mg/kg/injection, schedule: Q04DX003 (sc), vehicle: olive oil, sesame oil, peanut oil 108 % of control | dose: 400.0 mg/kg/injection, schedule: Q04DX003 (sc), vehicle: olive oil, sesame oil, peanut oil 91 % of control

O=C(C=C(C(F)(F)F)C(F)(F)F)c1cccc(Cl)c1
inactive: [13] 100 % of control | dose: 6.25 mg/kg/injection, schedule: Q04DX003 (ip), vehicle: saline with Tween-80 96 % of control | dose: 12.5 mg/kg/injection, schedule: Q01DX009 (ip), vehicle: saline 100 % of control | dose: 12.5 mg/kg/injection, schedule: Q04DX003 (ip), vehicle: saline with Tween-80 107 % of control | [14] 97 % of control | dose: 25.0 mg/kg/injection, schedule: Q04DX003 (ip), vehicle: saline with Tween-80 100 % of control | dose: 50.0 mg/kg/injection, schedule: Q04DX003 (ip), vehicle: saline with Tween-80 100 % of control

CC(C)(C)OC(=O)C(CSSCC(NC(=O)OCc1ccccc1)C(=O)OC(C)(C)C)NC(=O)OCc1ccccc1 (centres undefined)
inactive: [3] 98 % of control | [4] 98 % of control | [5] 107 % of control | [6] 96 % of control | [15] 107 % of control | [16] 96 % of control

CCN(CC)CCCNc1nc(C(Cl)(Cl)Cl)nc2ccc(I)cc12
inactive: [3] 96 % of control | [5] 100 % of control

O=C(CCCCC(=O)Nc1cc(C2=NCCN2)cc(C2N=CCN2)c1)Nc1cc(C2=NCCN2)cc(C2=NCCN2)c1 (centres undefined)
inactive: dose: 2.2 mg/kg/injection, schedule: Q01DX Z (ip), vehicle: methylcellulose (MC) 96 % of control | dose: 3.0 mg/kg/injection, schedule: Q01DX Z (ip), vehicle: methylcellulose (MC) 106 % of control | dose: 5.0 mg/kg/injection, schedule: Q01DX Z (ip), vehicle: carboxymethylcellulose (CMC) 120 % of control | dose: 5.0 mg/kg/injection, schedule: Q01DX Z (ip), vehicle: methylcellulose (MC) 101 % of control | dose: 9.0 mg/kg/injection, schedule: Q01DX Z (ip), vehicle: methylcellulose (MC) 87 % of control | dose: 10.0 mg/kg/injection, schedule: Q01DX Z (ip), vehicle: carboxymethylcellulose (CMC) 100 % of control | dose: 15.0 mg/kg/injection, schedule: Q01DX Z (ip), vehicle: carboxymethylcellulose (CMC) 94 % of control

Cc1cccc(NC(=O)C2CCC(C)(C(=O)O)C2(C)C)c1 (centres undefined)
inactive: dose: 50.0 mg/kg/injection, schedule: Q01DX009 (ip), vehicle: saline with Tween-80 101 % of control | [17] 101 % of control | [18] 96 % of control

CC(C)CC(C)(CC(C)C)C(=O)O
inactive: [7] 100 % of control | [8] 100 % of control | [9] 102 % of control

NC(=O)c1ccc(Cl)c([N+](=O)[O-])c1
inactive: [4] 110 % of control | [6] 109 % of control

O=[N+]([O-])c1ccccc1O
inactive: [17] 98 % of control | [18] 107 % of control | dose: 400.0 mg/kg/injection, schedule: Q01DX009 (ip), vehicle: saline with Tween-80 100 % of control

NNc1ncnc(SCc2ccccc2)c1N
inactive: dose: 50.0 mg/kg/injection, schedule: Q01DX001 (ip), vehicle: carboxymethylcellulose (CMC) 93 % of control | [10] 98 % of control | [11] 89 % of control | [12] 89 % of control

CCCNC(=S)Nc1ccccc1
inactive: dose: 75.0 mg/kg/injection, schedule: Q01DX001 (ip), vehicle: other 101 % of control | dose: 150.0 mg/kg/injection, schedule: Q01DX001 (ip), vehicle: other 107 % of control

O=C1NC2(CCCCC2)C(=O)N1CCN(CCCl)CCCl
inactive: dose: 1.3 mg/kg/injection, schedule: Q01DX009 (ip), vehicle: saline 96 % of control | dose: 2.0 mg/kg/injection, schedule: Q01DX009 (ip), vehicle: saline 107 % of control | dose: 4.1 mg/kg/injection, schedule: Q01DX009 (ip), vehicle: saline 117 % of control | [13] 119 % of control | dose: 9.3 mg/kg/injection, schedule: Q01DX009 (ip), vehicle: saline 124 % of control | dose: 16.0 mg/kg/injection, schedule: Q04DX003 (ip), vehicle: saline 122 % of control | [14] 106 % of control

O=c1[nH]c(Cc2ccccc2)c([N+](=O)[O-])c(=O)[nH]1
inactive: dose: 50.0 mg/kg/injection, schedule: Q01DX001 (ip), vehicle: Klucel (hydroxypropylcellulose) (HPC) 94 % of control | [1] 103 % of control | [2] 97 % of control

COc1ccc(O)c(/C=N/NC(N)=S)c1
inactive: [3] 100 % of control | [4] 115 % of control | [5] 104 % of control | [6] 96 % of control | [15] 100 % of control | [16] 97 % of control

CC1CC(=O)NN1C(O)c1ccc2c(c1)OCO2 (centres undefined)
inactive: dose: 100.0 mg/kg/injection, schedule: Q04DX002 (ip), vehicle: Klucel (hydroxypropylcellulose) (HPC) 97 % of control | dose: 200.0 mg/kg/injection, schedule: Q04DX002 (ip), vehicle: Klucel (hydroxypropylcellulose) (HPC) 97 % of control

NCCN=C(N)C(N)=NCCN
inactive: dose: 100.0 mg/kg/injection, schedule: Q04DX002 (ip), vehicle: saline 100 % of control | dose: 200.0 mg/kg/injection, schedule: Q04DX002 (ip), vehicle: saline 103 % of control | dose: 400.0 mg/kg/injection, schedule: Q04DX002 (ip), vehicle: saline 110 % of control

Nc1ncnc2c1ncn2C1OC(C(=O)O)C(O)C1O (centres undefined)
inactive: dose: 100.0 mg/kg/injection, schedule: Q01DX005 (ip), vehicle: saline 107 % of control | dose: 200.0 mg/kg/injection, schedule: Q01DX005 (ip), vehicle: saline 101 % of control
